What was measured:
[1] = Cytotoxicity against MDBK cells incubated for 72 hrs by CCK8 assay; assay type: toxicity, cell-based, Bos taurus; settings: cattle, MDBK cells
Leishmania donovani [2] = assay: Antileishmanial activity against Leishmania donovani 9515 (MHOM/IN/95/9151) amastigote infected in THP-1 cells assessed as inhibition of parasite growth incubated for 72 hrs by resazurin dye based plate reader assay; assay type: functional, organism-based; settings: THP-1, 72 h
[3] = test system: Trypanosoma brucei rhodesiense; assay: Trypanocidal activity against Trypanosoma brucei rhodesiense IL1501 incubated for 72 hrs by CellTiter-Glo reagent based […] analysis; assay type: functional, organism-based; settings: IL1501, 72 h
Trypanosoma evansi = assay: Trypanocidal activity against Trypanosoma evansi Tansui incubated for 72 hrs by CellTiter-Glo reagent based […] analysis; assay type: functional, organism-based
Trypanosoma equiperdum = assay: Trypanocidal activity against Trypanosoma equiperdum IVM-t1 incubated for 72 hrs by CellTiter-Glo reagent based […] analysis; assay type: functional, organism-based; settings: IVM-t1, 72 h
[4] = test system: Trypanosoma brucei brucei; assay: Trypanocidal activity against Trypanosoma brucei brucei GUTat3.1 incubated for 72 hrs by CellTiter-Glo reagent based […] analysis; assay type: functional, organism-based; settings: GUTat3.1, 72 h
Trypanosoma congolense = assay: Trypanocidal activity against Trypanosoma congolense IL3000 incubated for 72 hrs by CellTiter-Glo reagent based […] analysis; assay type: functional, organism-based; settings: IL3000, 72 h
Leishmania donovani [5] = assay: Antileishmanial activity against Leishmania donovani 9515 (MHOM/IN/95/9151) promastigote incubated for 48 hrs by resazurin dye based plate reader assay; assay type: functional, organism-based
[6] = test system: Trypanosoma brucei gambiense; assay: Trypanocidal activity against Trypanosoma brucei gambiense IL1922 incubated for 72 hrs by CellTiter-Glo reagent based […] analysis; assay type: functional, organism-based; settings: IL1922, 72 h
Leishmania donovani [7] = assay: Leishmanicidal activity against Leishmania donovani 9515 (MHOM/IN/95/9151) amastigote infected in THP-1 cells incubated for 72 hrs by resazurin dye based plate reader assay; assay type: functional, organism-based; settings: THP-1, 72 h
[8] = Cytotoxicity against human […]-differentiated THP-1 cells incubated for 72 hrs by resazurin dye based assay; assay type: toxicity, cell-based
[9] = Cytotoxicity against green monkey Vero cells incubated for 48 hrs by resazurin dye based assay; assay type: toxicity, cell-based; settings: African green monkey (Chlorocebus sabaeus)
[10] = Selectivity index, ratio of CC50 for MDBK to IC50 for Trypanosoma congolense IL3000; assay type: toxicity, cell-based; settings: cattle, MDBK cells; read-out: Ratio CC50/IC50
[11] = Selectivity index, ratio of IC50 for african green monkey Vero cells to IC50 for leishmanicidal activity against Leishmania donovani 9515 (MHOM/IN/95/9151) amastigote; assay type: toxicity, cell-based; settings: read-out: Ratio IC50
[12] = Selectivity index, ratio of IC50 for african green monkey Vero cells to IC50 for static antileishmanial activity against Leishmania donovani 9515 (MHOM/IN/95/9151) amastigote; assay type: toxicity, cell-based; settings: read-out: Ratio IC50
[13] = Selectivity index, ratio of IC50 for human THP-1 cells to IC50 for leishmanicidal activity against Leishmania donovani 9515 (MHOM/IN/95/9151) amastigote; assay type: toxicity, cell-based; settings: read-out: Ratio IC50
[14] = Selectivity index, ratio of IC50 for human THP-1 cells to IC50 for static antileishmanial activity against Leishmania donovani 9515 (MHOM/IN/95/9151) amastigote; assay type: toxicity, cell-based; settings: read-out: Ratio IC50
[15] = Selectivity index, ratio of CC50 for MDBK to IC50 for Trypanosoma brucei rhodesiense IL1501; assay type: toxicity, cell-based; settings: cattle, MDBK cells; read-out: Ratio CC50/IC50
[16] = Selectivity index, ratio of CC50 for MDBK to IC50 for Trypanosoma brucei gambiense IL1922; assay type: toxicity, cell-based; settings: cattle, MDBK cells; read-out: Ratio CC50/IC50
[17] = Selectivity index, ratio of CC50 for MDBK to IC50 for Trypanosoma evansi Tansui; assay type: toxicity, cell-based; settings: cattle, MDBK cells; read-out: Ratio CC50/IC50
[18] = Selectivity index, ratio of CC50 for MDBK to IC50 for Trypanosoma brucei brucei GUTat3.1; assay type: toxicity, cell-based; settings: cattle, MDBK cells; read-out: Ratio CC50/IC50
[19] = Selectivity index, ratio of CC50 for MDBK to IC50 for Trypanosoma equiperdum IVM-t1; assay type: toxicity, cell-based; settings: cattle, MDBK cells; read-out: Ratio CC50/IC50
[20] = Selectivity index, ratio of IC50 for human THP-1 cells to IC50 for Leishmania donovani 9515 (MHOM/IN/95/9151) promastigote; assay type: toxicity, cell-based; settings: read-out: Ratio IC50
[21] = Selectivity index, ratio of IC50 for african green monkey Vero cells to IC50 for Leishmania donovani 9515 (MHOM/IN/95/9151) promastigote; assay type: toxicity, cell-based; settings: read-out: Ratio IC50

| SMILES | CC50 at 72 h [1] [µM] | IC50 (Leishmania donovani [2]) [µM] | IC50 [3] [µM] | IC50 (Trypanosoma evansi) [µM] | IC50 (Trypanosoma equiperdum) [µM] | IC50 [4] [µM] | IC50 (Trypanosoma congolense) [µM] | IC50 (Leishmania donovani [5]) [µM] | IC50 [6] [µM] | IC50 (Leishmania donovani [7]) [µM] | IC50 at 72 h [8] [µM] | IC50 at 48 h [9] [µM] | further results |
| --- | --- | --- | --- | --- | --- | --- | --- | --- | --- | --- | --- | --- | --- |
| C#CCn1cc(/C=N\N=C\c2cccn2C)c2cc([N+](=O)[O-])ccc21 | > 299 | > 10 | > 74.8 | > 74.8 | > 74.8 | > 74.8 | > 74.8 | > 10 | > 74.8 | > 10 |  |  |  |
| C#CCn1cc(C=O)c2cc([N+](=O)[O-])ccc21 | > 438 | > 10 | > 110 | > 110 | > 110 | > 110 | > 110 | > 10 | > 110 | > 10 | 77 | > 100 |  |
| C#CCn1cc(/C=N\N=C\c2nccn2C)c2cc([N+](=O)[O-])ccc21 | > 302 | > 10 | > 75.5 | > 75.5 | > 75.5 | > 75.5 | 12.8 | > 10 | > 75.5 | > 10 | 29.7 | 54.7 | selectivity ratio [10]: > 23.5 |
| N=C(N)c1ccc(OCCCCCOc2ccc(C(=N)N)cc2)cc1 [PENTAMIDINE] |  |  |  | 0.001 | 0.001 |  | 0.33 |  | 0.014 |  |  |  |  |
| C#CCn1cc(/C=N\N=C\c2cccnc2)c2cc([N+](=O)[O-])ccc21 | 111 | 1.32 | > 75.5 | > 75.5 | > 75.5 | > 75.5 | > 75.5 | > 10 | > 75.5 | 1.46 | > 100 | > 100 | selectivity ratio [11]: > 68; selectivity ratio [12]: > 76; selectivity ratio [13]: > 68; selectivity ratio [14]: 76 |
| C#CCn1cc(/C=N\N=C\c2ccccn2)c2cc([N+](=O)[O-])ccc21 | > 121 | 1.59 | > 75.5 | > 75.5 | > 75.5 | > 75.5 | > 75.5 | > 10 | > 75.5 | 3.35 | > 100 | > 100 | selectivity ratio [11]: > 30; selectivity ratio [12]: > 63; selectivity ratio [13]: > 30; selectivity ratio [14]: 63 |
| C#CCn1cc(/C=N\N)c2cc([N+](=O)[O-])ccc21 | 341 | > 10 | > 103 | > 103 | > 103 | > 103 | > 3.2 | > 10 | > 103 | > 10 | 61 | 96.8 |  |
| C#CCn1ccc2cc([N+](=O)[O-])ccc21 | > 500 | > 10 | > 125 | > 125 | > 125 | > 125 | > 125 | > 10 | > 125 | > 10 | > 100 | > 100 |  |
| C#CCn1cc(/C=N\N=C/CC)c2cc([N+](=O)[O-])ccc21 | > 354 | > 10 | 75.1 | 55.4 | 56.1 | 78.8 | > 88.6 | > 10 | 51.6 | > 10 | > 100 | > 100 | selectivity ratio [15]: > 4.72; selectivity ratio [16]: > 6.86; selectivity ratio [17]: > 6.39; selectivity ratio [18]: > 4.49; selectivity ratio [19]: > 6.3 |
| C#CCn1cc(/C=N\N=C\C2CCCCC2)c2cc([N+](=O)[O-])ccc21 | > 297 | 2.85 | 19.4 | > 74.3 | 21.8 | 18.6 | > 74.3 | > 10 | 16.1 | > 10 | 52.9 | > 100 | selectivity ratio [15]: > 15.3; selectivity ratio [16]: > 18.4; selectivity ratio [12]: > 35; selectivity ratio [18]: > 16; selectivity ratio [19]: > 13.7; selectivity ratio [14]: 19 |
| C#CCn1cc(/C=N\N=C/CCC)c2cc([N+](=O)[O-])ccc21 | > 338 | > 10 | 48.5 | > 84.4 | > 84.4 | > 84.4 | > 84.4 | > 10 | > 84.4 | > 10 | 43.9 | > 100 | selectivity ratio [15]: > 6.96 |
| NCCCC(N)(C(=O)O)C(F)F (stereo unspecified) [EFLORNITHINE] |  |  | 46 | 57.2 |  | 38.6 | 16.1 |  | 36.7 |  |  |  |  |
| N=C(N)c1ccc(/N=N/Nc2ccc(C(=N)N)cc2)cc1 [DIMINAZENE DIACETURATE] |  |  |  |  | 0.011 |  | 0.109 |  |  |  |  |  |  |
| CC1CS(=O)(=O)CCN1/N=C/c1ccc([N+](=O)[O-])o1 (stereo unspecified) [NIFURTIMOX] |  |  |  |  |  |  |  |  | 4.58 |  |  |  |  |
| C#CCn1cc(/C=N\N=C/C2CC2)c2cc([N+](=O)[O-])ccc21 | > 340 | > 10 | > 84.9 | > 84.9 | > 84.9 | > 84.9 | > 84.9 | > 10 | > 84.9 | > 10 | 51.8 | 88.4 |  |
| C#CCn1cc(/C=N\N=C/C)c2cc([N+](=O)[O-])ccc21 | > 373 | > 10 | > 93.2 | > 93.2 | > 93.2 | > 93.2 | > 93.2 | > 10 | > 93.2 | > 10 | 59.3 | 89 |  |
| O=[N+]([O-])c1ccc2[nH]ccc2c1 |  | > 10 |  |  |  |  |  | > 10 |  | > 10 | > 100 | > 100 |  |
| C#CCn1cc(/C=N\N=C\c2ccc([N+](=O)[O-])cc2)c2cc([N+](=O)[O-])ccc21 | > 68.2 | 9.75 | > 66.7 | > 66.7 | > 66.7 | > 66.7 | 8.84 | > 10 | > 66.7 | 3.91 | 25.7 | 27.5 | selectivity ratio [11]: 7; selectivity ratio [12]: 3; selectivity ratio [13]: 7; selectivity ratio [10]: > 30.1; selectivity ratio [14]: 3 |
| C#CCn1cc(/C=N\N=C\c2cnc[nH]2)c2cc([N+](=O)[O-])ccc21 | > 312 | > 10 | > 78 | > 78 | > 78 | > 78 | 14.8 | > 10 | > 78 | > 10 | 42.5 | 83.2 | selectivity ratio [10]: > 21 |
| C#CCn1cc(\C=N/N=C/C(C)=C\C)c2cc([N+](=O)[O-])ccc21 | > 281 | 0.32 | > 81.2 | > 81.2 | > 81.2 | > 81.2 | > 81.2 | 10.5 | > 81.2 | 1.7 | > 100 | 84.2 | selectivity ratio [20]: 10; selectivity ratio [11]: 50; selectivity ratio [12]: 226; selectivity ratio [13]: > 59; selectivity ratio [21]: 8; selectivity ratio [14]: 313 |
| Cc1ccc(C(=O)Nc2ccc(S(=O)(=O)O)c3cc(S(=O)(=O)O)cc(S(=O)(=O)O)c23)cc1NC(=O)c1cccc(NC(=O)Nc2cccc(C(=O)Nc3cc(C(=O)Nc4ccc(S(=O)(=O)O)c5cc(S(=O)(=O)O)cc(S(=O)(=O)O)c45)ccc3C)c2)c1 [SURAMIN] |  |  |  |  | 0.038 |  |  |  |  |  |  |  |  |
| C#CCn1cc(/C=N\N=C\c2ccncc2)c2cc([N+](=O)[O-])ccc21 | 267 | > 10 | > 75.5 | > 75.5 | > 75.5 | > 75.5 | > 75.5 | > 10 | > 75.5 | > 10 | 66.4 | > 100 |  |

From ChEMBL document CHEMBL6083269, “Design, synthesis, in vitro and in vivo trypanosomaticidal efficacy of novel 5-nitroindolylazines” (Eur J Med Chem, 2024)
